ChEMBL document CHEMBL1154622, “Structure-guided design of potent and selective pyrimidylpyrrole inhibitors of extracellular signal-regulated kinase (ERK) using conformational control” (J Med Chem, 2009)

Assays:
[1] = Volume of distribution at steady state in mouse at 5 mg/kg, iv; assay type: ADME, organism-based; design: dose 5 mg/kg, route intravenous; conditions: in vivo, read-out: Vdss
[2] = target: Serine/threonine-protein kinase BRSK2 (Homo sapiens) (UniProt Q8IWQ3); experiment: Inhibition of BRSK2 at 1 uM
[3] = target: Ribosomal protein S6 kinase alpha-2 (Homo sapiens) (UniProt Q15349); experiment: Inhibition of RSK3 at 1 uM
[4] = target: Calcium/calmodulin-dependent protein kinase type II subunit alpha (Homo sapiens) (UniProt Q9UQM7); experiment: Inhibition of CAMK2 at 2 uM
[5] = target: Serine/threonine-protein kinase TBK1 (Homo sapiens, UniProt Q9UHD2); experiment: Inhibition of NAK
[6] = target: Ribosomal protein S6 kinase alpha-6 (Homo sapiens) (UniProt Q9UK32); experiment: Inhibition of RSK4 at 1 uM
[7] = target: Hepatocyte growth factor receptor (Homo sapiens, UniProt P08581); experiment: Inhibition of MET
Hepatocyte growth factor receptor, sequence (P08581 whole entry): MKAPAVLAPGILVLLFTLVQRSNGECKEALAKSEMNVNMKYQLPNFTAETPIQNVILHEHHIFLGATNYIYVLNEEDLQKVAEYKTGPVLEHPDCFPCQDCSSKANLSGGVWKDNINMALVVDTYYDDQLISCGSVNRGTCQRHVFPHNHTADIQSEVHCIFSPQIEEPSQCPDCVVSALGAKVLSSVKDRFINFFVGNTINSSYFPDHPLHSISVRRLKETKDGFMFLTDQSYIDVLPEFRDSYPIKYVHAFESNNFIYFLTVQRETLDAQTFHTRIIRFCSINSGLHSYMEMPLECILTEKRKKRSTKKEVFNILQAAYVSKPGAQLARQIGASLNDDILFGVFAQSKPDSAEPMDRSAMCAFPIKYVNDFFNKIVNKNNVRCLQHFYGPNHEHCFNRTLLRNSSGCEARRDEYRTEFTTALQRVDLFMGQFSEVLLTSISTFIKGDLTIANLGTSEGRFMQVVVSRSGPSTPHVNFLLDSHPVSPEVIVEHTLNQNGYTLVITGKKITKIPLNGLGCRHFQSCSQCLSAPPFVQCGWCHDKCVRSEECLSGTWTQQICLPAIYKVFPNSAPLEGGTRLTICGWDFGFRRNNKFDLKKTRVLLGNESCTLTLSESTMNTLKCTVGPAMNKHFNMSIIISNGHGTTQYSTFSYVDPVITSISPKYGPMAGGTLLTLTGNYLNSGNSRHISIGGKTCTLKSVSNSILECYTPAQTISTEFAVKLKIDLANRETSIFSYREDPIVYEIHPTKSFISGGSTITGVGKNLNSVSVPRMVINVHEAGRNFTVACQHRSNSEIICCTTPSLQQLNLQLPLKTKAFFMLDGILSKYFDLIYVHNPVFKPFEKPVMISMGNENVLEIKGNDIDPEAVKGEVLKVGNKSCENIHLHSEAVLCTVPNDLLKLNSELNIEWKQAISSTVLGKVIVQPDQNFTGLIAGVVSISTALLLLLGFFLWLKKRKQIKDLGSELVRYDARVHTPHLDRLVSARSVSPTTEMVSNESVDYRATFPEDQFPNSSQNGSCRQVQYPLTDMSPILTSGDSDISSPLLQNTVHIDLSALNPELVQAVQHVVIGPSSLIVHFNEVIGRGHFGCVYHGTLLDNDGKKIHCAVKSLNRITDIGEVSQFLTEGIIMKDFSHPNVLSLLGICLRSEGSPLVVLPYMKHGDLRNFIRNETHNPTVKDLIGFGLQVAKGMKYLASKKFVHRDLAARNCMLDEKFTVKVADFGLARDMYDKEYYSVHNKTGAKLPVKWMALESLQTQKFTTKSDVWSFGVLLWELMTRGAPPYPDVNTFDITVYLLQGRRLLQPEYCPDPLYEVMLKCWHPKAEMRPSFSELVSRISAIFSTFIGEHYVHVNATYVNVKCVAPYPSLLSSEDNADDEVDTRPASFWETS

Ribosomal protein S6 kinase alpha-6 (Homo sapiens), sequence (Q9UK32 whole entry): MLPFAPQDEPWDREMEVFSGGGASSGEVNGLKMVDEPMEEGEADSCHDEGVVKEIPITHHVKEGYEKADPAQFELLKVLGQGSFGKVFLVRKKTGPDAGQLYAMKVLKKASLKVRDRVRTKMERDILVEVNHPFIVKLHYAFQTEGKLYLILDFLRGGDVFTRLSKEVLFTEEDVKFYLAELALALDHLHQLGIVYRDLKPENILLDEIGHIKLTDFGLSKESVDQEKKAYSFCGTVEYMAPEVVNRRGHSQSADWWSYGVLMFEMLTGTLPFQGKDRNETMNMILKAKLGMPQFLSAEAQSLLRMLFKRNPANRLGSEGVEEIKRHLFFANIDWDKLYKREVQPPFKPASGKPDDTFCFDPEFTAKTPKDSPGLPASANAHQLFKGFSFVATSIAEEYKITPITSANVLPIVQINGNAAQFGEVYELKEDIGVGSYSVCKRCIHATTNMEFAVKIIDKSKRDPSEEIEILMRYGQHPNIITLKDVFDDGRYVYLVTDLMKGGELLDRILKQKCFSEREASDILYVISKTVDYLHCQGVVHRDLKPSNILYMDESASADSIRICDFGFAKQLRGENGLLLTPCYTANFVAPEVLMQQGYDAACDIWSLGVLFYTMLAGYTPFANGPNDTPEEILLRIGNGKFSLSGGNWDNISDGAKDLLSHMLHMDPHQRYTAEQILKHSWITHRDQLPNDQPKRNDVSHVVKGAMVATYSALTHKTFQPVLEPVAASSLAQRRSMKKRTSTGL
Serine/threonine-protein kinase TBK1, sequence (Q9UHD2 whole entry): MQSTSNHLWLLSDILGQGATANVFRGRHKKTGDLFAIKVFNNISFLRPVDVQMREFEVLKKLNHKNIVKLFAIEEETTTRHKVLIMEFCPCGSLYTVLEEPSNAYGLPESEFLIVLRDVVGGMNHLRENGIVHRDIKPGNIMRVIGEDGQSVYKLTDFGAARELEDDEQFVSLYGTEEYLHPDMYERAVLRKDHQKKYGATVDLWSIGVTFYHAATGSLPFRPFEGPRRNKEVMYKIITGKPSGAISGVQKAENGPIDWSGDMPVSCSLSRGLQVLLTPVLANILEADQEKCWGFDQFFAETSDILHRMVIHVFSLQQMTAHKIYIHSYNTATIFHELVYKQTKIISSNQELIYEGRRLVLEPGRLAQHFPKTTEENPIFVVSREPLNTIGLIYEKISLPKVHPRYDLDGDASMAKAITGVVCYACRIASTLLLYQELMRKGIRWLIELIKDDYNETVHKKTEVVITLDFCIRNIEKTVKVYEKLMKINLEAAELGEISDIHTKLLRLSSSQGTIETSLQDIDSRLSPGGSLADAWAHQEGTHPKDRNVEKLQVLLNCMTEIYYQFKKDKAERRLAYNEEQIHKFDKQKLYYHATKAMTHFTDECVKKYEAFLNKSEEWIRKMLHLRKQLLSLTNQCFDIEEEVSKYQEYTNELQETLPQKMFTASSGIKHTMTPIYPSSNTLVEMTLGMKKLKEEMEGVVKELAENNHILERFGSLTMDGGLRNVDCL
Serine/threonine-protein kinase BRSK2 (Homo sapiens), sequence (Q8IWQ3 whole entry): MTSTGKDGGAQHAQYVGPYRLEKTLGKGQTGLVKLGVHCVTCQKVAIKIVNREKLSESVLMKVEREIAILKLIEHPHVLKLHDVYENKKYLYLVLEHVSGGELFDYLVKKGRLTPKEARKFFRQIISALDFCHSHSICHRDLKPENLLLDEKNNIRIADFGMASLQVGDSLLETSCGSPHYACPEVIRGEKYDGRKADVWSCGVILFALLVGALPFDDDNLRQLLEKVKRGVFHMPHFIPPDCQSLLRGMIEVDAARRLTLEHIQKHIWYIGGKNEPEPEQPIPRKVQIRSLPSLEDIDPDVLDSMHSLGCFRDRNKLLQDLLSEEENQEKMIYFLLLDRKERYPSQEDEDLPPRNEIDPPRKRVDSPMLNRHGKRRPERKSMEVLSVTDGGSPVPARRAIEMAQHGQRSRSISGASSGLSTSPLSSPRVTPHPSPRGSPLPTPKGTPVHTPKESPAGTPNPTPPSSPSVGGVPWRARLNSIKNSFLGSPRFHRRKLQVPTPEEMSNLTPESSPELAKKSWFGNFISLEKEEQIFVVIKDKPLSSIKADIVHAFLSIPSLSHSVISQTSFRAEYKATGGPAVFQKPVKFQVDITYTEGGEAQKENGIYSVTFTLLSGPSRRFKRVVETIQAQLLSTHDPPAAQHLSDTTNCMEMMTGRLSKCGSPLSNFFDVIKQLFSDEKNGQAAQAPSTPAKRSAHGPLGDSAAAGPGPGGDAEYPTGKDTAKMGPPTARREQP
Calcium/calmodulin-dependent protein kinase type II subunit alpha (Homo sapiens), sequence (Q9UQM7 whole entry): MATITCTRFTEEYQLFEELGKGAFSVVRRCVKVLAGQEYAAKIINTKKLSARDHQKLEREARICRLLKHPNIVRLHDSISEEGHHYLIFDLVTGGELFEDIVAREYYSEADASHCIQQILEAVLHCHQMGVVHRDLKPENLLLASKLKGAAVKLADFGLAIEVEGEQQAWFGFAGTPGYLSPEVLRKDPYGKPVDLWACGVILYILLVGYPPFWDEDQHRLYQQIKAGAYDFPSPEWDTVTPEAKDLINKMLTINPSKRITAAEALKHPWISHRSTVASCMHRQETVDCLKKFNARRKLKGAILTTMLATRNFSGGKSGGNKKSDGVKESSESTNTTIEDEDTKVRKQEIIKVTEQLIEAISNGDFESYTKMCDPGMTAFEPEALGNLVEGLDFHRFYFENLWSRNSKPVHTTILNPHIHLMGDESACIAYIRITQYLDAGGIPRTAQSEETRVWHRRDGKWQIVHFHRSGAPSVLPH
Ribosomal protein S6 kinase alpha-2 (Homo sapiens), sequence (Q15349 whole entry): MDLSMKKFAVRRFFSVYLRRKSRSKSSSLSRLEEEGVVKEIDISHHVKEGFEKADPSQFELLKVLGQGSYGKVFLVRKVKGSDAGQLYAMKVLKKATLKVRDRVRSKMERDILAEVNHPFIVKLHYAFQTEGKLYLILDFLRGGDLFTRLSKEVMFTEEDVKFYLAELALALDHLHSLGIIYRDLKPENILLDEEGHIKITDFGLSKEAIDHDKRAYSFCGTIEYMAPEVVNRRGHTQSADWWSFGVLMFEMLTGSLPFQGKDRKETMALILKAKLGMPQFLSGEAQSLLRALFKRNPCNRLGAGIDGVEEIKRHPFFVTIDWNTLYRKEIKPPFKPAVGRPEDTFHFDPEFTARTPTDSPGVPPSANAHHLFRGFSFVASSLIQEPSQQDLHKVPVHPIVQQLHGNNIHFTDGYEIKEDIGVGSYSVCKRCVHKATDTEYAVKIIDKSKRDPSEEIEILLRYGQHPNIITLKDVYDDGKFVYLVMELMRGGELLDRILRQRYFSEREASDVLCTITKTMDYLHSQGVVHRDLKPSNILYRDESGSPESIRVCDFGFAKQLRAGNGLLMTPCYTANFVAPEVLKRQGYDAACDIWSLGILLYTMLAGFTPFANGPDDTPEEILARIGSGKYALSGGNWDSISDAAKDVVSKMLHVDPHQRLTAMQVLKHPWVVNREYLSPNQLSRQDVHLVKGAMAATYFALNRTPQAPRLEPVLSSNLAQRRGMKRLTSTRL

Cc1cnc(Nc2ccc(F)cc2Cl)nc1-c1c[nH]c(C(=O)N[C@H](CO)c2cccc(Cl)c2)c1
Vd [1]: 5.6 L/kg
inhibition [2]: 2%
inhibition [3]: 7%
inhibition [4]: 1%
Ki [5]: > 10 µM
inhibition [6]: 11%
Ki [7]: > 4 µM
